{"source": "PubChem BioAssay AID624407", "about": "(The Scripps Research Institute Molecular Screening Center, 2012)", "system": "parental CHO-K1 cells, HTRF counterscreen", "test": "nonspecific inhibition in untransfected CHO-K1 – cell-based, HTRF, dose response, counter-screen for OX1R antagonist project, late-stage follow-up (AID 624407)", "note": "pIC50: −log10 of the molar value. Active and inactive are the calls of the source. The rule behind the calls is not given here."}
{"smiles": "CCn1c(SCC(=O)Nc2ccc3c(c2)c2ccccc2n3CC)nnc1-c1cnccn1", "values": [{"measurement": "IC50", "value": "> 59.6 µM (inactive)"}]}
{"smiles": "CCOc1ccccc1C(=O)Nc1ccc2nc3n(c(=O)c2c1)CCCCC3", "values": [{"measurement": "IC50", "value": "> 59.6 µM (inactive)"}]}
{"smiles": "CN(N=Cc1cc([N+](=O)[O-])ccc1O)c1ccccc1", "values": [{"measurement": "IC50", "value": "> 59.6 µM (inactive)"}]}
{"smiles": "Fc1cccc(Nc2nc3ccccc3n3cnnc23)c1", "values": [{"measurement": "IC50", "value": "> 59.6 µM (inactive)"}]}
{"smiles": "CCc1cc2c(SCC(=O)N(CC)c3c(N)n(Cc4ccccc4)c(=O)[nH]c3=O)ncnc2s1", "values": [{"measurement": "IC50", "value": "> 59.6 µM (inactive)"}]}
{"smiles": "CCOC(=O)N1CCN(C(=O)CSc2ccc(-c3ccccc3)nn2)CC1", "values": [{"measurement": "IC50", "value": "> 59.6 µM (inactive)"}]}
{"smiles": "CCc1cc(C(=O)OCC(=O)N2CCC(c3ccccc3)=N2)sc1C", "values": [{"measurement": "IC50", "value": "> 59.6 µM (inactive)"}]}
{"smiles": "CCSC1=C(C#N)C(c2ccccc2Cl)C(C(=O)c2cccs2)C(O)(C(F)(F)F)N1", "note": "(stereo unspecified)", "values": [{"measurement": "IC50", "value": "> 59.6 µM (inactive)"}]}
{"smiles": "COc1cc(OC)c(-c2nc3ccccc3s2)cc1OC", "values": [{"measurement": "IC50", "value": "> 59.6 µM (inactive)"}]}
{"smiles": "Cc1ccc(-c2csc3nnc(SCC(=O)Nc4nsc(-c5ccccc5)n4)n23)cc1", "values": [{"measurement": "IC50", "value": "> 59.6 µM (inactive)"}]}
{"smiles": "COc1cccc(/C=C2/Oc3ccccc3N(CC(=O)NCC3CCCO3)C2=O)c1", "note": "(stereo unspecified)", "values": [{"measurement": "IC50", "value": "> 59.6 µM (inactive)"}]}
{"smiles": "COCCCNC(=O)CCC(=O)NNc1nc2ccccc2c2nc(-c3ccccc3)nn12", "values": [{"measurement": "IC50", "value": "> 59.6 µM (inactive)"}]}
{"smiles": "Cc1cccc(C=NNC(=O)c2cc3c(s2)-c2ccccc2CC3)c1", "values": [{"measurement": "IC50", "value": "> 59.6 µM (inactive)"}]}
{"smiles": "O=C(CSc1ccc(-c2ccccc2)nn1)c1cccs1", "values": [{"measurement": "IC50", "value": "> 59.6 µM (inactive)"}]}
{"smiles": "O=c1cc(CN2CC(O)Cc3ccc4ccccc4c32)nc2sccn12", "note": "(stereo unspecified)", "values": [{"measurement": "IC50", "value": "> 59.6 µM (inactive)"}]}
{"smiles": "Cc1ccccc1NC(=O)C1CCCN1S(=O)(=O)c1ccccc1C(F)(F)F", "note": "(stereo unspecified)", "values": [{"measurement": "IC50", "value": "> 59.6 µM (inactive)"}]}
{"smiles": "Cc1c(NS(=O)(=O)c2cccc(C(=O)OCC(=O)N(C)C3CCCCC3)c2)c(=O)n(-c2ccccc2)n1C", "values": [{"measurement": "IC50", "value": "> 59.6 µM (inactive)"}]}
{"smiles": "Cc1cc(Cl)ccc1OCCCC(=O)NCCN1C(=O)S/C(=C\\c2cccnc2)C1=O", "values": [{"measurement": "pIC50", "value": 5.06}]}
{"smiles": "Cc1cccc(NC(=O)[C@@H]2CCCN2S(=O)(=O)c2ccc(Cl)cc2)c1", "values": [{"measurement": "IC50", "value": "> 59.6 µM (inactive)"}]}
{"smiles": "CC(=C/c1ccccc1)/C=C1/SC(N2CCOCC2)=NC1=O", "values": [{"measurement": "IC50", "value": "12.4 µM (inactive)"}]}
{"smiles": "O=C(CN1C(=O)/C(=C\\c2cccc(Br)c2)Oc2ccccc21)NCC1CCCO1", "note": "(stereo unspecified)", "values": [{"measurement": "IC50", "value": "> 59.6 µM (inactive)"}]}
{"smiles": "COc1ccc(OC)c(S(=O)(=O)NCC(c2ccco2)N2CCc3ccccc32)c1", "note": "(stereo unspecified)", "values": [{"measurement": "IC50", "value": "> 59.6 µM (inactive)"}]}
{"smiles": "CSc1cccc(NC(=O)C2CCCN2S(=O)(=O)c2ccc(Br)s2)c1", "note": "(stereo unspecified)", "values": [{"measurement": "IC50", "value": "> 59.6 µM (inactive)"}]}
{"smiles": "CCN(CC)c1ccc(NC(=O)Cn2c(C(C)NC(=O)c3ccccc3)nc3ccccc32)cc1", "note": "(stereo unspecified)", "values": [{"measurement": "IC50", "value": "> 59.6 µM (inactive)"}]}
{"smiles": "Cc1noc(C)c1COc1ccc(C(=O)OCC(=O)N2CC(=O)Nc3ccccc32)cc1", "values": [{"measurement": "IC50", "value": "> 59.6 µM (inactive)"}]}
{"smiles": "CSc1cccc(N2CC(C(=O)NCCN3C(=O)S/C(=C\\c4cccnc4)C3=O)CC2=O)c1", "note": "(stereo unspecified)", "values": [{"measurement": "pIC50", "value": 5.47}]}
